This is an account of results in patent US10874631B2, “Altertoxin II as a selective inhibitor of Ewing family of tumor cells” (priority 2016, dated 2020).

The subject of the data set is Ewing sarcoma cells. Put plainly: Panel of 5 pediatric cancer cell lines, selective cytotoxicity. The format is cell-based. As to conditions: 5 types of solid pediatric cancers.

Regarding `O=C1C[C@H](O)[C@@H]2c3c(ccc(O)c31)-c1ccc(O)c3c1[C@@]2(O)CCC3=O` [Altertoxin I, altertoxin I], the “selective cytotoxic activity against Ewing sarcoma cells” value was “did not show selective cytotoxic activity”.
